Assay results published in US20230081426A1, “COMPOUNDS AND METHODS FOR KRAS MODULATION AND INDICATIONS THEREFOR” (Plexxikon Inc., priority 2020, published 2023).

Columns and labels:
[1] = biological target: T1, G12D-mutant human KRAS (amino acid residues 1-188) (Homo sapiens, UniProt P01116, G12D); test: KRAS Binding Disruption Assay (AlphaScreen; biotinylated KRpep-2d analogue or RAF1-RBD), G12D; settings: KRAS G12D; geometric mean; read-out: KRAS GMean IC50 (uM) MUTATION: G12D
T1 construct: G12D or G12C-mutant human KRAS (amino acid residues 1-188) with FLAG tag; made in house; host or cells: E. coli
How it was run: (§1)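 Mutant KRAS (5-20 nM) incubated 1 h at 25° C with test compound and 5-20 nM biotinylated KRpep-2d analogue or RAF1-RBD in 20 mM HEPES pH 7.5, 100 mM NaCl, 5 mM MgCl2, 0.01% Tween-20, 0.01% BSA.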

[2] = biological target: T2, G12C-mutant human KRAS (amino acid residues 1-188) (Homo sapiens, UniProt P01116, G12C); test: KRAS Binding Disruption Assay (AlphaScreen; biotinylated KRpep-2d analogue or RAF1-RBD), G12C; settings: geometric mean, read-out: KRAS GMean IC50 (uM) MUTATION: G12C
T2 construct: G12D or G12C-mutant human KRAS (amino acid residues 1-188) with FLAG tag; made in house; host or cells: E. coli
How it was run: as §1

[3] = biological target: T3, G12V-mutant human KRAS (amino acid residues 1-188) (Homo sapiens, UniProt P01116, G12V); test: KRAS Binding Competition Assay (AlphaScreen; biotinylated KRpep-2d analogue), G12V; settings: geometric mean, read-out: KRAS GMean IC50 (uM) MUTATION: G12V
T3 construct: G12V-mutant human KRAS (amino acid residues 1-188) with FLAG tag was purified from E. coli; made in house; host or cells: E. coli

Measured: IC50

O=C(NCC1CCNC1)N1[C@@H]2CC[C@H]1CN(c1nc(OCC34CCCN3CCC4)nc3cc(-c4cc(O)cc5ccccc45)ccc13)C2 (stereo partly drawn) [P-0127, (1R,5S)-3-(7-(3-hydroxynaphthalen-1-yl)-2-((tetrahydro-1H-pyrrolizin-7a(5H)-yl)methoxy)quinazolin-4-yl)-N-(pyrrolidin-3-ylmethyl)-3,8-diazabicyclo[3.2.1]octane-8-carboxamide]
0.0001 to 10 µM: all assays above

Cn1cc(NC(=O)N2[C@@H]3CC[C@H]2CN(c2nc(OCC45CCCN4CCC5)nc4cc(-c5cc(O)cc6ccccc56)ccc24)C3)cn1 [P-0128, (1R,5S)-3-(7-(3-hydroxynaphthalen-1-yl)-2-((tetrahydro-1H-pyrrolizin-7a(5H)-yl)methoxy)quinazolin-4-yl)-N-(1-methyl-1H-pyrazol-4-yl)-3,8-diazabicyclo[3.2.1]octane-8-carboxamide]
0.0001 to 10 µM: all assays above

O=C(NC1CCOC1)N1[C@@H]2CC[C@H]1CN(c1nc(OCC34CCCN3CCC4)nc3cc(-c4cc(O)cc5ccccc45)ccc13)C2 (stereo partly drawn) [P-0129, (1R,5S)-3-(7-(3-hydroxynaphthalen-1-yl)-2-((tetrahydro-1H-pyrrolizin-7a(5H)-yl)methoxy)quinazolin-4-yl)-N-(tetrahydrofuran-3-yl)-3,8-diazabicyclo[3.2.1]octane-8-carboxamide]
0.0001 to 10 µM: all assays above

O=C(N[C@H]1CC[C@@H](O)C1)N1[C@@H]2CC[C@H]1CN(c1nc(OCC34CCCN3CCC4)nc3cc(-c4cc(O)cc5ccccc45)ccc13)C2 [P-0130, (1R,5S)-N-((1S,3R)-3-hydroxycyclopentyl)-3-(7-(3-hydroxynaphthalen-1-yl)-2-((tetrahydro-1H-pyrrolizin-7a(5H)-yl)methoxy)quinazolin-4-yl)-3,8-diazabicyclo[3.2.1]octane-8-carboxamide]
0.0001 to 10 µM: all assays above

O=C(N[C@H]1CC[C@H](O)C1)N1[C@@H]2CC[C@H]1CN(c1nc(OCC34CCCN3CCC4)nc3cc(-c4cc(O)cc5ccccc45)ccc13)C2 [P-0131, (1R,5S)-N-((1S,3S)-3-hydroxycyclopentyl)-3-(7-(3-hydroxynaphthalen-1-yl)-2-((tetrahydro-1H-pyrrolizin-7a(5H)-yl)methoxy)quinazolin-4-yl)-3,8-diazabicyclo[3.2.1]octane-8-carboxamide]
0.0001 to 10 µM: all assays above

CN1CC[C@H](NC(=O)N2[C@@H]3CC[C@H]2CN(c2nc(OCC45CCCN4CCC5)nc4cc(-c5cc(O)cc6ccccc56)ccc24)C3)C1 [P-0132, (1R,5S)-3-(7-(3-hydroxynaphthalen-1-yl)-2-((tetrahydro-1H-pyrrolizin-7a(5H)-yl)methoxy)quinazolin-4-yl)-N-((S)-1-methylpyrrolidin-3-yl)-3,8-diazabicyclo[3.2.1]octane-8-carboxamide]
0.0001 to 10 µM: all assays above

CN1CC[C@@H](NC(=O)N2[C@@H]3CC[C@H]2CN(c2nc(OCC45CCCN4CCC5)nc4cc(-c5cc(O)cc6ccccc56)ccc24)C3)C1 [P-0133, (1R,5S)-3-(7-(3-hydroxynaphthalen-1-yl)-2-((tetrahydro-1H-pyrrolizin-7a(5H)-yl)methoxy)quinazolin-4-yl)-N-((R)-1-methylpyrrolidin-3-yl)-3,8-diazabicyclo[3.2.1]octane-8-carboxamide]
0.0001 to 10 µM: all assays above

O=C(NC1CCNCC1)N1[C@@H]2CC[C@H]1CN(c1nc(OCC34CCCN3CCC4)nc3cc(-c4cc(O)cc5ccccc45)ccc13)C2 [P-0134, (1R,5S)-3-(7-(3-hydroxynaphthalen-1-yl)-2-((tetrahydro-1H-pyrrolizin-7a(5H)-yl)methoxy)quinazolin-4-yl)-N-(piperidin-4-yl)-3,8-diazabicyclo[3.2.1]octane-8-carboxamide]
0.0001 to 10 µM: all assays above

O=C1NCCC1NC(=O)N1[C@@H]2CC[C@H]1CN(c1nc(OCC34CCCN3CCC4)nc3cc(-c4cc(O)cc5ccccc45)ccc13)C2 (stereo partly drawn) [P-0135, (1R,5S)-3-(7-(3-hydroxynaphthalen-1-yl)-2-((tetrahydro-1H-pyrrolizin-7a(5H)-yl)methoxy)quinazolin-4-yl)-N-(2-oxopyrrolidin-3-yl)-3,8-diazabicyclo[3.2.1]octane-8-carboxamide]
0.0001 to 10 µM: all assays above

Oc1cc(-c2ccc3c(N4C[C@H]5CC[C@@H](C4)N5)nc(OCC45CCCN4CCC5)nc3c2F)c2c(Cl)cccc2c1 [P-0136, 4-(4-((1R,5S)-3,8-diazabicyclo[3.2.1]octan-3-yl)-8-fluoro-2-((tetrahydro-1H-pyrrolizin-7a(5H)-yl)methoxy)quinazolin-7-yl)-5-chloronaphthalen-2-ol]
0.0001 to 10 µM: all assays above

Oc1cc(-c2c(F)cc3c(N4C[C@H]5CC[C@@H](C4)N5)nc(OCC45CCCN4CCC5)nc3c2F)c2c(Cl)cccc2c1 [P-0137, 4-(4-((1R,5S)-3,8-diazabicyclo[3.2.1]octan-3-yl)-6,8-difluoro-2-((tetrahydro-1H-pyrrolizin-7a(5H)-yl)methoxy)quinazolin-7-yl)-5-chloronaphthalen-2-ol]
0.0001 to 10 µM: all assays above

CN1CC[C@@H](NC(=O)N2[C@@H]3CC[C@H]2CN(c2nc(OCC45CCCN4CCC5)nc4c(F)c(-c5cc(O)cc6ccccc56)ccc24)C3)C1 [P-0186, (1R,5S)-3-(8-fluoro-7-(3-hydroxynaphthalen-1-yl)-2-((tetrahydro-1H-pyrrolizin-7a(5H)-yl)methoxy)quinazolin-4-yl)-N-((R)-1-methylpyrrolidin-3-yl)-3,8-diazabicyclo[3.2.1]octane-8-carboxamide]
0.0001 to 10 µM: all assays above

CN1CCC[C@H]1COc1nc(N2CC3COCC(C2)N3)c2ccc(-c3cc(O)cc4ccccc34)c(F)c2n1 [P-0249, 4-(4-(3-oxa-7,9-diazabicyclo[3.3.1]nonan-7-yl)-8-fluoro-2-(((S)-1-methylpyrrolidin-2-yl)methoxy)quinazolin-7-yl)naphthalen-2-ol]
0.0001 to 10 µM: all assays above

CN1CCC[C@H]1COc1nc(N2C[C@H]3CC[C@@H](C2)N3C(=O)CC2SC(=O)NC2=O)c2ccc(-c3cc(O)cc4ccccc34)c(F)c2n1 (stereo partly drawn) [P-0279, 5-(2-((1R,5S)-3-(8-fluoro-7-(3-hydroxynaphthalen-1-yl)-2-(((S)-1-methylpyrrolidin-2-yl)methoxy)quinazolin-4-yl)-3,8-diazabicyclo[3.2.1]octan-8-yl)-2-oxoethyl)thiazolidine-2,4-dione]
0.0001 to 10 µM: all assays above
